From ChEMBL document CHEMBL4382286, “Nongenotoxic 3-Nitroimidazo[1,2-a]pyridines Are NTR1 Substrates That Display Potent in Vitro Antileishmanial Activity” (ACS Med Chem Lett, 2019)

Columns and labels:
[1] = tested on: Leishmania donovani; assay: Antileishmanial activity against promastigote stage of Leishmania donovani MHOM/IN/00/DEVI after 72 hrs by MTT assay; assay type: functional, organism-based
[2] = Selectivity index, ratio of CC50 for human HepG2 cells to IC50 for promastigote stage of Leishmania donovani MHOM/IN/00/DEVI; assay type: toxicity; settings: read-out: Ratio CC50/IC50
[3] = Cytotoxicity against human HepG2 cells after 72 hrs by MTT assay; assay type: cell-based
[4] = Solubility of the compound in RPMI medium at 4 to 6 uM; assay type: physicochemical
[5] = tested on: Trichomonas vaginalis; assay: Antiprotozoal activity against Trichomonas vaginalis TVR87 measured after 48 hrs by trypan blue assay; assay type: functional, organism-based
[6] = tested on: Plasmodium falciparum; assay: Antiplasmodial activity against chloroquine/proguanil/pyrimethamine-resistant synchronized stage of Plasmodium falciparum K1 after 72 hrs by SYBR green1 staining based spectrophotometric method; assay type: functional, organism-based; settings: K1, 72 h
[7] = Cytotoxicity against human THP1 cells after 72 hrs by MTT assay; assay type: cell-based; settings: THP-1 cells
[8] = tested on: Leishmania donovani; assay: Antileishmanial activity against intracellular amastigote stage of Leishmania donovani infected in human THP1 cells after 120 hrs by giemsa staining based microscopic analysis; assay type: functional, organism-based; settings: THP-1, 120 h
[9] = tested on: Trypanosoma cruzi; assay: Antitrypanosomal activity against Trypanosoma cruzi MHOM/BR/78/Silvio cloneX10/7A epimastigotes measured after 4 days by resazurin dye based fluorescence assay; assay type: functional, organism-based; settings: 96 h
[10] = tested on: Trypanosoma brucei brucei; assay: Antitrypanosomal activity against trypomastigote stage of Trypanosoma brucei brucei AnTat 1.9 assessed as decrease in parasite viability after 69 hrs by Alamar Blue assay; assay type: functional, organism-based; settings: AnTat 1.9, 69 h
[11] = Mutagenicity in Salmonella typhimurium TA98 at 62.5 to 625 uM preincubated for 1 hr followed by addition of molten top agar and measured 48 hrs post dark incubation by Ames test; assay type: toxicity; settings: salmonella enterica subsp. enterica serovar typhimurium
[12] = tested on: Leishmania infantum; assay: Antileishmanial activity against Leishmania infantum axenic amastigotes after 48 hrs by steady-glo luciferase reporter gene assay; assay type: functional, organism-based
[13] = Mutagenicity in Salmonella typhimurium TA97a at 62.5 to 625 uM preincubated for 1 hr followed by addition of molten top agar and measured 48 hrs post dark incubation by Ames test; assay type: toxicity; settings: salmonella enterica subsp. enterica serovar typhimurium
[14] = Mutagenicity in Salmonella typhimurium TA98 at 62.5 to 625 uM preincubated for 1 hr with S9 mix followed by addition of molten top agar and measured 48 hrs post dark incubation by Ames test; assay type: toxicity, subcellular; settings: salmonella enterica subsp. enterica serovar typhimurium, s9, 48 h
[15] = Mutagenicity in Salmonella typhimurium TA100 at 62.5 to 625 uM preincubated for 1 hr with S9 mix followed by addition of molten top agar and measured 48 hrs post dark incubation by Ames test; assay type: toxicity, subcellular; settings: salmonella enterica subsp. enterica serovar typhimurium, s9, 48 h
[16] = Mutagenicity in Salmonella typhimurium TA102 at 62.5 to 625 uM preincubated for 1 hr with S9 mix followed by addition of molten top agar and measured 48 hrs post dark incubation by Ames test; assay type: toxicity, subcellular; settings: salmonella enterica subsp. enterica serovar typhimurium, s9, 48 h
[17] = Mutagenicity in Salmonella typhimurium TA102 at 62.5 to 625 uM preincubated for 1 hr followed by addition of molten top agar and measured 48 hrs post dark incubation by Ames test; assay type: toxicity; settings: salmonella enterica subsp. enterica serovar typhimurium
[18] = Mutagenicity in Salmonella typhimurium TA100 at 62.5 to 625 uM preincubated for 1 hr followed by addition of molten top agar and measured 48 hrs post dark incubation by Ames test; assay type: toxicity; settings: salmonella enterica subsp. enterica serovar typhimurium
[19] = Mutagenicity in Salmonella typhimurium TA97a at 62.5 to 625 uM preincubated for 1 hr with S9 mix followed by addition of molten top agar and measured 48 hrs post dark incubation by Ames test; assay type: toxicity, subcellular; settings: salmonella enterica subsp. enterica serovar typhimurium, s9, 48 h
[20] = Electrochemical behavior of the compound assessed as redox potential corrected toward normal hydrogen electrode by cyclic voltammetry
[21] = Aqueous solubility of the compound at >12.5 uM; assay type: physicochemical; settings: buffer
[22] = tested on: Leishmania major; assay: Antileishmanial activity against promastigote stage of Leishmania major MHOM/IL/81/Friedlin after 72 hrs by MTT assay; assay type: functional, organism-based
[23] = Solubility of the compound in RPMI medium at >62.5 uM; assay type: physicochemical
[24] = tested on: Leishmania major; assay: Antileishmanial activity against intracellular amastigote stage of Leishmania major infected in human THP1 cells after 120 hrs by giemsa staining based microscopic analysis; assay type: functional, organism-based; settings: THP-1, 120 h

| SMILES | IC50 [1] [µM] | selectivity ratio [2] | CC50 at 72 h [3] [µM] | solubility [4] | further results |
| --- | --- | --- | --- | --- | --- |
| O=[N+]([O-])c1c(CS(=O)(=O)c2ccccc2)nc2c(Sc3ccc(F)cc3)cc(Cl)cn12 | 1.3 | > 3.8 | > 5 |  |  |
| O=[N+]([O-])c1c(CS(=O)(=O)c2ccccc2)nc2c(Sc3ccccc3)cc(Cl)cn12 | 1.7 | > 2.3 | > 3.9 |  |  |
| O=[N+]([O-])c1c(CS(=O)(=O)c2ccccc2)nc2c(Sc3ccccc3F)cc(Cl)cn12 | 1.2 | > 4.2 | > 5 |  |  |
| O=[N+]([O-])c1c(CS(=O)(=O)c2ccccc2)nc2c(SCc3ccccc3)cc(Cl)cn12 |  |  |  | Insoluble |  |
| COc1ccccc1Sc1cc(Cl)cn2c([N+](=O)[O-])c(CS(=O)(=O)c3ccccc3)nc12 | 2.3 | > 21.7 | > 50 |  |  |
| Cc1ncc([N+](=O)[O-])n1CCO [METRONIDAZOLE] |  |  |  |  | IC50 [5]: 4.2 µM |
| CC(C)c1ccc(Sc2cc(Cl)cn3c([N+](=O)[O-])c(CS(=O)(=O)c4ccccc4)nc23)cc1 | 1.6 | > 15.6 | > 25 | Insoluble |  |
| O=C1C(O)=C([C@H]2CC[C@H](c3ccc(Cl)cc3)CC2)C(=O)c2ccccc21 [ATOVAQUONE] |  |  |  |  | IC50 [6]: 0.001 µM |
| CSc1ccc(OCc2ncc([N+](=O)[O-])n2C)cc1 [FEXINIDAZOLE] |  |  | > 200 |  | CC50 at 72 h [7]: > 62.5 µM; IC50 [8]: > 50 µM; IC50 [9]: 8.9 µM |
| O=[N+]([O-])c1c(CS(=O)(=O)c2ccccc2)nc2c(Sc3cccc(F)c3)cc(Cl)cn12 | 1.2 | > 2.1 | > 3.9 |  |  |
| O=[N+]([O-])c1c(CS(=O)(=O)c2ccccc2)nc2c(Sc3cccc(C(F)(F)F)c3)cc(Cl)cn12 | 1.3 | > 2.4 | > 3.9 |  |  |
| O=[N+]([O-])c1c(CS(=O)(=O)c2ccccc2)nc2c(Sc3ccccc3C(F)(F)F)cc(Cl)cn12 | 1.5 | > 2.7 | > 4.1 |  |  |
| N=C(N)c1ccc(OCCCCCOc2ccc(C(=N)N)cc2)cc1 [PENTAMIDINE] |  | 0.4 |  |  |  |
| Cc1cccc(Sc2cc(Cl)cn3c([N+](=O)[O-])c(CS(=O)(=O)c4ccccc4)nc23)c1 | 1.4 | > 4 | > 5.6 |  |  |
| O=C(Cn1ccnc1[N+](=O)[O-])NCc1ccccc1 [BENZNIDAZOLE] |  |  |  |  | IC50 [9]: 1.2 µM |
| O=[N+]([O-])c1c(CS(=O)(=O)c2ccccc2)nc2c(Sc3cccc(Cl)c3Cl)cc(Cl)cn12 | 2 | > 12.5 | > 25 | Insoluble |  |
| COc1ccc(Sc2cc(Cl)cn3c([N+](=O)[O-])c(CS(=O)(=O)c4ccccc4)nc23)cc1 | 1.5 | > 41.7 | > 62.5 | Soluble |  |

| SMILES | IC50 [1] [µM] | selectivity ratio [2] | CC50 at 72 h [3] [µM] | solubility [4] | further results |
| --- | --- | --- | --- | --- | --- |
| CC1CS(=O)(=O)CCN1/N=C/c1ccc([N+](=O)[O-])o1 (configuration not stated) [NIFURTIMOX] |  |  |  |  | IC50 [9]: 0.3 µM |
| O=[N+]([O-])c1c(CS(=O)(=O)c2ccccc2)nc2c([S+]([O-])c3ccc(Cl)cc3)cc(Cl)cn12 (configuration not stated) |  |  | > 12.5 |  | IC50 [10]: 0.6 µM; Activity [11]: Non-Toxic; IC50 [12]: 1.6 µM; Activity [13]: Non-Toxic; IC50 [8]: 1.3 µM; Activity [14]: Non-Toxic; Activity [15]: Non-Toxic; Activity [16]: Non-Toxic; Activity [17]: Non-Toxic; Activity [18]: Non-Toxic; Activity [19]: Non-Toxic; Activity [20]: -0.61 V; solubility [21]: Insoluble |
| COc1cccc(Sc2cc(Cl)cn3c([N+](=O)[O-])c(CS(=O)(=O)c4ccccc4)nc23)c1 | 2.3 | > 6.8 | > 15.6 | Insoluble |  |
| O=[N+]([O-])c1c(CS(=O)(=O)c2ccccc2)nc2c(SCc3ccc(Cl)cc3)cc(Cl)cn12 |  |  |  | Insoluble |  |
| Cc1ccccc1Sc1cc(Cl)cn2c([N+](=O)[O-])c(CS(=O)(=O)c3ccccc3)nc12 | 1.7 | > 1.5 | > 3.9 |  |  |
| O=[N+]([O-])c1c(CS(=O)(=O)c2ccccc2)nc2c(Sc3ccccc3Cl)cc(Cl)cn12 | 1.4 | > 3.6 | > 5 |  |  |
| O=C(O)Cc1ccc(Sc2cc(Cl)cn3c([N+](=O)[O-])c(CS(=O)(=O)c4ccccc4)nc23)cc1 | 65.6 | > 1 | > 62.5 | Soluble |  |
| Cc1ccc(Sc2cc(Cl)cn3c([N+](=O)[O-])c(CS(=O)(=O)c4ccccc4)nc23)cc1 | 1.4 | > 2.2 | > 3.9 |  |  |
| O=[N+]([O-])c1c(CS(=O)(=O)c2ccccc2)nc2c(Sc3cccc(Cl)c3)cc(Cl)cn12 | 0.7 | > 3.6 | > 3.9 |  |  |
| O=[N+]([O-])c1c(CS(=O)(=O)c2ccccc2)nc2c(Sc3cc(Cl)ccc3Cl)cc(Cl)cn12 | 1.3 | > 1.5 | > 3.9 |  |  |
| O=[N+]([O-])c1c(CS(=O)(=O)c2ccccc2)nc2c(SCc3ccc(Br)cc3)cc(Cl)cn12 |  |  |  | Insoluble |  |
| O=[N+]([O-])c1c(CS(=O)(=O)c2ccccc2)nc2c(Sc3ccc(Br)cc3)cc(Cl)cn12 | 1 | > 62.5 | > 62.5 | Soluble | IC50 [10]: 3.8 µM; IC50 [12]: 9 µM; CC50 at 72 h [7]: > 62.5 µM; IC50 [22]: 1.3 µM; IC50 [8]: 3.5 µM; solubility [23]: Insoluble; IC50 [24]: 5 µM; IC50 [5]: 4.6 to 5 µM; IC50 [9]: 6.2 µM |
| COc1ccc(CSc2cc(Cl)cn3c([N+](=O)[O-])c(CS(=O)(=O)c4ccccc4)nc23)cc1 |  |  |  | Insoluble |  |
| O=[N+]([O-])c1c(CS(=O)(=O)c2ccccc2)nc2c(Sc3ccc(C(F)(F)F)cc3)cc(Cl)cn12 | 2.1 | > 1.5 | > 3.9 |  |  |
| O=[N+]([O-])c1c(CS(=O)(=O)c2ccccc2)nc2c(Sc3ccc(Cl)cc3Cl)cc(Cl)cn12 | 1.7 | > 2.2 | > 3.9 |  |  |
| C[C@@H]1[C@H](O)[C@@H](C)/C=C/C=C/C=C/C=C/C=C/C=C/C=C/[C@H](O[C@@H]2O[C@H](C)[C@@H](O)[C@H](N)[C@@H]2O)C[C@@H]2O[C@](O)(C[C@@H](O)C[C@@H](O)[C@H](O)CC[C@@H](O)C[C@@H](O)CC(=O)O[C@H]1C)C[C@H](O)[C@H]2C(=O)O [AMPHOTERICIN B] |  |  |  |  | IC50 [22]: 0.6 µM; IC50 [24]: 0.2 µM |
